From patent US20100261877A1, “PROCESS FOR ISOLATING THERAPEUTIC PEPTIDES” (priority 2009, published 2010)
Where a SMILES comes first, the peptide text is derived from it. Bridges are numbered along the chain shown (N, C = ends).

Experiments:
[1] = Solubility of SEQ ID NO. 1 in aqueous isopropanol solution; format: physicochemical
From the text: 1 that is able to be dissolved in aqueous isopropanol solution, depending on the v/v % isopropanol:water. The very sharp increase in solubility between 40-60% isopropanol was very unexpected and the discovery of this unexpected result allowed for the successful isolation of SEQ ID NO. 1 by precipitation which was necessary for a viable large manufacturing scale-up required for commercial production.

[2] = Solubility of SEQ ID NO. 1 in aqueous ethanol solution; format: physicochemical
From the text: The above general procedures were followed replacing isopropyl alcohol (IPA) with ethanol.
1 that is able to be dissolved in the aqueous ethanol solution, depending on the v/v % ethanol:water. The very sharp increase in solubility between 50-70 ethanol was very unexpected and the discovery of this unexpected result allowed for the successful isolation of SEQ ID NO. 1 by precipitation which was necessary for a viable large manufacturing scale-up required for commercial production.

[3] = molecular target: T1, guanylate cyclase type C receptor (GCC) (Homo sapiens, UniProt P25092); settings: in vitro, varying concentrations; cited from earlier work
T1 construct: endogenous in cells
T1 sequence (P25092 24-1073): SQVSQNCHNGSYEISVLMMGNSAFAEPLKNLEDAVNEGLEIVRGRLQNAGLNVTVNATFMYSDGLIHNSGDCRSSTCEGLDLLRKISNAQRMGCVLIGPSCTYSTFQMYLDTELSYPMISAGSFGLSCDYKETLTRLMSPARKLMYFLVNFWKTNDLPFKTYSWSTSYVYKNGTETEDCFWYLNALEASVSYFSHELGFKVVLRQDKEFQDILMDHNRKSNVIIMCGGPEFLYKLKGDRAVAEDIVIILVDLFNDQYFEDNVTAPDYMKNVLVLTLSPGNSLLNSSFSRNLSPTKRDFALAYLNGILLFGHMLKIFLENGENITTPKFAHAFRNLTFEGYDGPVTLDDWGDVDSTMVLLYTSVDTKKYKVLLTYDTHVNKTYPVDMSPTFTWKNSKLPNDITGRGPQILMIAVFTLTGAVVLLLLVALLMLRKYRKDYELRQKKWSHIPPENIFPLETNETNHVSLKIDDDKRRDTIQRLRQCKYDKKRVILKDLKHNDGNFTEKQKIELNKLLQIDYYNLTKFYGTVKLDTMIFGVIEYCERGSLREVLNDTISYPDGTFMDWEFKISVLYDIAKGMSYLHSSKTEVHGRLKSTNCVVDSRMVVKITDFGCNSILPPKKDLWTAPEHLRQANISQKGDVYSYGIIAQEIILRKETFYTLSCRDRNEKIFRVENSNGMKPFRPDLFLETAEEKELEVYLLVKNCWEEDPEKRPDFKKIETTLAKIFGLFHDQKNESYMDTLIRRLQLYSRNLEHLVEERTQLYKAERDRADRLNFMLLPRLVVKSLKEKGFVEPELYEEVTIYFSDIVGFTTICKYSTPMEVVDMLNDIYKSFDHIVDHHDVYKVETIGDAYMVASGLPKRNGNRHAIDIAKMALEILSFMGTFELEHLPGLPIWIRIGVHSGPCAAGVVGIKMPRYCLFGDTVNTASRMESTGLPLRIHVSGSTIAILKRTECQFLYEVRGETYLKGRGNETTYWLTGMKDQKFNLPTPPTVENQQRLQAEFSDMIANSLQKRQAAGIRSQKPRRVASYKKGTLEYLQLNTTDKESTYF

[4] = test system: small bowel motility, fluid secretion, visceral pain; settings: oral, mice and rats; cited from earlier work

C[C@@H]1NC(=O)[C@@H]2CCCN2C(=O)[C@H](CC(N)=O)NC(=O)[C@@H]2CSSC[C@H](N)C(=O)N[C@H]3CSSC[C@H](NC1=O)C(=O)N[C@@H]([C@@H](C)O)C(=O)NCC(=O)N[C@H](C(=O)N[C@@H](Cc1ccc(O)cc1)C(=O)O)CSSC[C@H](NC(=O)[C@H](Cc1ccc(O)cc1)NC(=O)[C@H](CCC(=O)O)NC3=O)C(=O)N2 [SEQ ID No. 1, Cys-Cys-Glu-Tyr-Cys-Cys-Asn-Pro-Ala-Cys-Thr-Gly-Cys-Tyr] (H-CCEYCCNPACTGCY-OH; disulfide 1-6, 2-10, 5-13)
amount of SEQ ID NO. 1 able to be dissolved ([1]; IPA 0 v/v % in water): 1.3 mg/mL | amount of SEQ ID NO. 1 able to be dissolved ([1]; IPA 5 v/v % in water): 1.8 mg/mL | amount of SEQ ID NO. 1 able to be dissolved ([1]; IPA 10 v/v % in water): 2.3 mg/mL | amount of SEQ ID NO. 1 able to be dissolved ([1]; IPA 15 v/v % in water): 3.3 mg/mL | amount of SEQ ID NO. 1 able to be dissolved ([1]; IPA 20 v/v % in water): 4.3 mg/mL | amount of SEQ ID NO. 1 able to be dissolved ([1]; IPA 25 v/v % in water): 4.8 mg/mL | amount of SEQ ID NO. 1 able to be dissolved ([1]; IPA 30 v/v % in water): 6.0 mg/mL | amount of SEQ ID NO. 1 able to be dissolved ([1]; IPA 35 v/v % in water): 7.0 mg/mL | amount of SEQ ID NO. 1 able to be dissolved ([1]; IPA 40 v/v % in water): 13.8 mg/mL | amount of SEQ ID NO. 1 able to be dissolved ([1]; IPA 45 v/v % in water): 47.8 mg/mL | amount of SEQ ID NO. 1 able to be dissolved ([1]; IPA 50 v/v % in water): 120.3 mg/mL | amount of SEQ ID NO. 1 able to be dissolved ([1]; IPA 55 v/v % in water): 162.5 mg/mL | amount of SEQ ID NO. 1 able to be dissolved ([1]; IPA 60 v/v % in water): 138.5 mg/mL | amount of SEQ ID NO. 1 able to be dissolved ([1]; IPA 65 v/v % in water): 106.5 mg/mL | amount of SEQ ID NO. 1 able to be dissolved ([1]; IPA 70 v/v % in water): 65.7 mg/mL | amount of SEQ ID NO. 1 able to be dissolved ([1]; IPA 75 v/v % in water): 26.5 mg/mL | amount of SEQ ID NO. 1 able to be dissolved ([1]; IPA 80 v/v % in water): 19.0 mg/mL | amount of SEQ ID NO. 1 able to be dissolved ([1]; IPA 85 v/v % in water): 12.5 mg/mL | amount of SEQ ID NO. 1 able to be dissolved ([1]; IPA 90 v/v % in water): 9.0 mg/mL | amount of SEQ ID NO. 1 able to be dissolved ([1]; IPA 95 v/v % in water): 4.5 mg/mL | amount of SEQ ID NO. 1 able to be dissolved ([1]; IPA 100 v/v %): 0.3 mg/mL | amount of SEQ ID NO. 1 able to be dissolved ([2]; EtOH 0 v/v % in water): 0.50 mg/mL | amount of SEQ ID NO. 1 able to be dissolved ([2]; EtOH 5 v/v % in water): 0.25 mg/mL | amount of SEQ ID NO. 1 able to be dissolved ([2]; EtOH 10 v/v % in water): 0.75 mg/mL | amount of SEQ ID NO. 1 able to be dissolved ([2]; EtOH 15 v/v % in water): 1.00 mg/mL | amount of SEQ ID NO. 1 able to be dissolved ([2]; EtOH 20 v/v % in water): 0.75 mg/mL | amount of SEQ ID NO. 1 able to be dissolved ([2]; EtOH 25 v/v % in water): 3.00 mg/mL | amount of SEQ ID NO. 1 able to be dissolved ([2]; EtOH 30 v/v % in water): 3.00 mg/mL | amount of SEQ ID NO. 1 able to be dissolved ([2]; EtOH 35 v/v % in water): 2.75 mg/mL | amount of SEQ ID NO. 1 able to be dissolved ([2]; EtOH 40 v/v % in water): 2.25 mg/mL | amount of SEQ ID NO. 1 able to be dissolved ([2]; EtOH 45 v/v % in water): 3.50 mg/mL | amount of SEQ ID NO. 1 able to be dissolved ([2]; EtOH 50 v/v % in water): 9.25 mg/mL | amount of SEQ ID NO. 1 able to be dissolved ([2]; EtOH 55 v/v % in water): 179.25 mg/mL | amount of SEQ ID NO. 1 able to be dissolved ([2]; EtOH 60 v/v % in water): 347.50 mg/mL | amount of SEQ ID NO. 1 able to be dissolved ([2]; EtOH 65 v/v % in water): 430.00 mg/mL | amount of SEQ ID NO. 1 able to be dissolved ([2]; EtOH 70 v/v % in water): 441.50 mg/mL | amount of SEQ ID NO. 1 able to be dissolved ([2]; EtOH 75 v/v % in water): 304.00 mg/mL | amount of SEQ ID NO. 1 able to be dissolved ([2]; EtOH 80 v/v % in water): 45.25 mg/mL | amount of SEQ ID NO. 1 able to be dissolved ([2]; EtOH 85 v/v % in water): 10.25 mg/mL | amount of SEQ ID NO. 1 able to be dissolved ([2]; EtOH 90 v/v % in water): 10.00 mg/mL | amount of SEQ ID NO. 1 able to be dissolved ([2]; EtOH 95 v/v % in water): 3.75 mg/mL | amount of SEQ ID NO. 1 able to be dissolved ([2]; EtOH 100 v/v %): 0.50 mg/mL | cGMP in human intestinal cells [3]: increased cGMP | effects on small bowel motility, fluid secretion and visceral pain [4]: promising effects on increasing small bowel motility, fluid secretion and decreasing visceral pain
